Columns and labels:
VIM-1 = VIM-1 (Pseudomonas aeruginosa (strain ATCC 15692 / DSM 22644 / CIP 104116 / JCM 14847 / LMG 12228 / 1C / PRS 101 / PAO1), UniProt A0A0F7KYQ8); assay: biochemical; conditions: CCF2-FA substrate, 2 hours at 25° C
Method in brief: (§1)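 Fluorescence assay, CCF2-FA substrate (cephalosporin core linking 7-hydroxycoumarin to fluorescein); inhibitor + MBL + substrate, 2 h, 25° C. IC50 by 4-parameter fit, semi-log plot.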

[1] = system: Escherichia coli expressing NDM-1 (CLB30005, CLB30016); type: cell-based; conditions: with imipenem 1 μg/ml, 95% inhibition of bacterial growth
Method in brief: (§2)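 Colonies from overnight 35 °C blood-agar cultures were suspended in saline, diluted 1:100 into 1.1× CAMHB and exposed to test compound with or without imipenem at 1 μg/ml. After 22–24 h at 35 °C, absorbance was read to find the concentration restoring imipenem susceptibility.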

[2] = system: Klebsiella pneumoniae expressing VIM-1 (IHMA599644); type: cell-based; conditions: with imipenem 1 μg/ml, 95% inhibition of bacterial growth
Method in brief: as §2

[3] = system: Serratia marcescens expressing IMP-1 (CL5741); type: cell-based; conditions: with imipenem 1 μg/ml, 95% inhibition of bacterial growth
Method in brief: as §2

[4] = system: P. aeruginosa expressing IMP-1, efflux+ (MB9798); type: cell-based, Pseudomonas aeruginosa; conditions: for P. aeruginosa expressing IMP-1, efflux+ (MB9798) MITC95: imipenem at 2 μg/mL, in the presence of a class A, C, D serine β-lactamase inhibitor closely related to relebactam; for Efflux ratio: ratio MITC95 PA_9798/MITC95 PA_9799
Description: (§3) The strain background is Pseudomonas aeruginosa PAO1.

[5] = system: P. aeruginosa expressing IMP-1, efflux− (MB9799); assay: Efflux: concentration of MBL inhibitor which restores susceptibility to imipenem; type: cell-based, Pseudomonas aeruginosa; conditions: imipenem at 2 μg/mL, in the presence of a class A, C, D serine β-lactamase inhibitor closely related to relebactam
Description: as §3

IMP-1 = IMP-1 (Serratia marcescens, UniProt P52699); assay: biochemical; type: biochemical; conditions: CCF2-FA substrate, 2 hours at 25° C; read-out: IMP-1 IC50
Sequence of IMP-1 (P52699 whole entry, looked up, species assumed): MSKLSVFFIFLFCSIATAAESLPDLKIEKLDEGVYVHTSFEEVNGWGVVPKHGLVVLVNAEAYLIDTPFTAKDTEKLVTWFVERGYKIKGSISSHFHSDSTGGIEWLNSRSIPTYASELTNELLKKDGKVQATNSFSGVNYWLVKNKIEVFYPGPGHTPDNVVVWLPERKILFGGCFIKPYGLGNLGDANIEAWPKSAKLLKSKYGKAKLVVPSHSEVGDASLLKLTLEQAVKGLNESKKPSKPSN
Method in brief: as §1

NDM-1 = NDM-1 (Klebsiella pneumoniae, UniProt C7C422); assay: biochemical; type: biochemical; conditions: CCF2-FA substrate, 2 hours at 25° C; read-out: NDM-1 IC50
Sequence of NDM-1 (C7C422 whole entry, looked up, species assumed): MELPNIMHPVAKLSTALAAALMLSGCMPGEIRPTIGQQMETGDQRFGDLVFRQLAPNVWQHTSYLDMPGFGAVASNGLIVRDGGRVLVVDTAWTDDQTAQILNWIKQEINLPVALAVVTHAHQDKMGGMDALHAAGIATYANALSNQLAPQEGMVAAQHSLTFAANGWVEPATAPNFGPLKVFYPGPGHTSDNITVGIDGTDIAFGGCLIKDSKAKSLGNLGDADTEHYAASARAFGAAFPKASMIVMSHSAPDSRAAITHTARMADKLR
Method in brief: as §1

`CC(C)(N)CS(=O)(=O)c1ccc(-c2cccc3sc(N)nc23)c(-c2nn[nH]n2)c1S(N)(=O)=O` [Example 94, 6-(2-amino-2-methylpropylsulfonyl)-3-(2-aminobenzo[d]thiazol-4-yl)-2-(2H-tetrazol-5-yl)benzenesulfonamide] was tested, and the IC50 (VIM-1) was 222 pM, the “Escherichia coli expressing NDM-1 (CLB30016) MITC95” value [1] was 0.7813 µM and the “Klebsiella pneumoniae expressing VIM-1 (IHMA599644) MITC95” value [2] was 3.125 µM. For the same compound, the “Serratia marcescens expressing IMP-1 (CL5741) MITC95” value [3] was 1.563 µM, the “P. aeruginosa expressing IMP-1, efflux+ (MB9798) MITC95” value [4] was 3.125 µM and the Efflux ratio [4] was 2.00. For the same compound, the “P. aeruginosa expressing IMP-1, efflux− (MB9799) MITC95” value [5] was 1.563 µM, the IC50 (IMP-1) was 504 pM and the IC50 (NDM-1) was 206 pM.
In the case of `NCC(O)CS(=O)(=O)c1ccc(-c2cccc3sc(N)nc23)c(-c2nn[nH]n2)c1S(N)(=O)=O` (centres unmarked) [Example 97, 6-(3-amino-2-hydroxypropylsulfonyl)-3-(2-aminobenzo[d]thiazol-4-yl)-2-(2H-tetrazol-5-yl)benzenesulfonamide], the IC50 (VIM-1) is reported as 249 pM, the “Escherichia coli expressing NDM-1 (CLB30016) MITC95” value [1] is reported as 0.7813 µM and the “Klebsiella pneumoniae expressing VIM-1 (IHMA599644) MITC95” value [2] is reported as 1.563 µM. For the same compound, the “Serratia marcescens expressing IMP-1 (CL5741) MITC95” value [3] was 1.563 µM, the “P. aeruginosa expressing IMP-1, efflux+ (MB9798) MITC95” value [4] was 0.3906 µM and the “P. aeruginosa expressing IMP-1, efflux− (MB9799) MITC95” value [5] was 0.7813 µM. The IC50 (IMP-1) was 171 pM and the IC50 (NDM-1) was 64.5 pM.
For `NS(=O)(=O)c1c(S(=O)(=O)C2CNC2)ccc(-c2cccn3cc(C(=O)O)nc23)c1-c1nnn[nH]1` [Example 61, 8-(4-(Azetidin-3-ylsulfonyl)-3-sulfamoyl-2-(1H-tetrazol-5-yl)phenyl)imidazo[1,2-a]pyridine-2-carboxylic Acid], the IC50 (VIM-1) was 678 pM, the “Escherichia coli expressing NDM-1 (CLB30016) MITC95” value [1] was 12.5 µM and the “Klebsiella pneumoniae expressing VIM-1 (IHMA599644) MITC95” value [2] was 25 µM. The “Serratia marcescens expressing IMP-1 (CL5741) MITC95” value [3] was 6.25 µM, the “P. aeruginosa expressing IMP-1, efflux+ (MB9798) MITC95” value [4] was 12.5 µM and the Efflux ratio [4] was 1.00. The “P. aeruginosa expressing IMP-1, efflux− (MB9799) MITC95” value [5] was 12.5 µM, the IC50 (IMP-1) was 2220 pM and the IC50 (NDM-1) was 254 pM.
`NS(=O)(=O)c1c(S(=O)(=O)C2CNC2)ccc(-c2cnc(N3CCCC3)s2)c1-c1nnn[nH]1.O=C(O)C(F)(F)F` [Example 121, 3-((4-(2-(pyrrolidin-1-yl)thiazol-5-yl)-2-sulfamoyl-3-(1H-tetrazol-5-yl)phenyl)sulfonyl)azetidin-1-ium 2,2,2-trifluoroacetate] was tested, and the IC50 (VIM-1) was 1440 pM, the “Escherichia coli expressing NDM-1 (CLB30016) MITC95” value [1] was 0.7813 µM and the “Klebsiella pneumoniae expressing VIM-1 (IHMA599644) MITC95” value [2] was 6.25 µM. The “Serratia marcescens expressing IMP-1 (CL5741) MITC95” value [3] was 3.125 µM, the “P. aeruginosa expressing IMP-1, efflux+ (MB9798) MITC95” value [4] was 200 µM and the Efflux ratio [4] was 127.96. For the same compound, the “P. aeruginosa expressing IMP-1, efflux− (MB9799) MITC95” value [5] was 1.563 µM, the IC50 (IMP-1) was 3570 pM and the IC50 (NDM-1) was 740 pM.
In the case of `NCCS(=O)(=O)c1ccc(-c2ccc3c(=O)nc[nH]c3c2)c(-c2nnn[nH]2)c1S(N)(=O)=O.O=C(O)C(F)(F)F` [Example 165, 2-((4-(4-oxo-1,4-dihydroquinazolin-7-yl)-2-sulfamoyl-3-(1H-tetrazol-5-yl)phenyl)sulfonyl)ethanaminium 2,2,2-trifluoroacetate], the IC50 (VIM-1) is reported as 571 pM, the “Escherichia coli expressing NDM-1 (CLB30016) MITC95” value [1] is reported as 3.125 µM and the “Klebsiella pneumoniae expressing VIM-1 (IHMA599644) MITC95” value [2] is reported as 6.25 µM. The “Serratia marcescens expressing IMP-1 (CL5741) MITC95” value [3] was 3.125 µM, the “P. aeruginosa expressing IMP-1, efflux+ (MB9798) MITC95” value [4] was 12.5 µM and the Efflux ratio [4] was 4.00. For the same compound, the “P. aeruginosa expressing IMP-1, efflux− (MB9799) MITC95” value [5] was 3.125 µM, the IC50 (IMP-1) was 1600 pM and the IC50 (NDM-1) was 2480 pM.
In the case of `NC(=O)c1ccc(-c2ccc(S(=O)(=O)C3CNC3)c(S(N)(=O)=O)c2-c2nnn[nH]2)c(N)n1` [Example 67, 6-Amino-5-(4-(azetidin-3-ylsulfonyl)-3-sulfamoyl-2-(1H-tetrazol-5-yl)phenyl)picolinamide], the IC50 (VIM-1) is reported as 333 pM, the “Escherichia coli expressing NDM-1 (CLB30016) MITC95” value [1] is reported as 1.563 µM and the “Klebsiella pneumoniae expressing VIM-1 (IHMA599644) MITC95” value [2] is reported as 3.125 µM. For the same compound, the “Serratia marcescens expressing IMP-1 (CL5741) MITC95” value [3] was 3.125 µM, the “P. aeruginosa expressing IMP-1, efflux+ (MB9798) MITC95” value [4] was 3.125 µM and the Efflux ratio [4] was 2.00. For the same compound, the “P. aeruginosa expressing IMP-1, efflux− (MB9799) MITC95” value [5] was 1.563 µM, the IC50 (IMP-1) was 1320 pM and the IC50 (NDM-1) was 376 pM.
`NS(=O)(=O)c1c(S(=O)(=O)C2CNC2)ccc(-c2cccn3ccnc23)c1-c1nnn[nH]1` [Example 58, 6-(Azetidin-3-ylsulfonyl)-3-(imidazo[1,2-a]pyridin-8-yl)-2-(1H-tetrazol-5-yl)benzenesulfonamide] was tested, and the IC50 (VIM-1) was 342 pM, the “Escherichia coli expressing NDM-1 (CLB30016) MITC95” value [1] was 0.7813 µM and the “Klebsiella pneumoniae expressing VIM-1 (IHMA599644) MITC95” value [2] was 3.125 µM. The “Serratia marcescens expressing IMP-1 (CL5741) MITC95” value [3] was 1.563 µM, the “P. aeruginosa expressing IMP-1, efflux+ (MB9798) MITC95” value [4] was 1.563 µM and the Efflux ratio [4] was 1.00. The “P. aeruginosa expressing IMP-1, efflux− (MB9799) MITC95” value [5] was 1.563 µM, the IC50 (IMP-1) was 597 pM and the IC50 (NDM-1) was 378 pM.
For `Nc1ccc(-c2ccc(S(=O)(=O)C3CCNCC3)c(S(N)(=O)=O)c2-c2nn[nH]n2)cn1` [Example 24, 3-(6-aminopyridin-3-yl)-6-(piperidin-4-ylsulfonyl)-2-(2H-tetrazol-5-yl)benzenesulfonamide], the IC50 (VIM-1) was 218 pM, the “Escherichia coli expressing NDM-1 (CLB30016) MITC95” value [1] was 3.125 µM and the “Klebsiella pneumoniae expressing VIM-1 (IHMA599644) MITC95” value [2] was 3.125 µM. For the same compound, the “Serratia marcescens expressing IMP-1 (CL5741) MITC95” value [3] was 3.125 µM, the “P. aeruginosa expressing IMP-1, efflux+ (MB9798) MITC95” value [4] was 3.125 µM and the Efflux ratio [4] was 2.00. The “P. aeruginosa expressing IMP-1, efflux− (MB9799) MITC95” value [5] was 1.563 µM, the IC50 (IMP-1) was 528 pM and the IC50 (NDM-1) was 382 pM.
With `NS(=O)(=O)c1c(S(=O)(=O)C2CNC2)ccc(-c2cccc3[nH]c(C(=O)O)nc23)c1-c1nn[nH]n1` [Example 253, 4-(4-(Azetidin-3-ylsulfonyl)-3-sulfamoyl-2-(2H-tetrazol-5-yl)phenyl)-1H-benzo[d]imidazole-2-carboxylic Acid] the IC50 (VIM-1) was 294 pM, the “Escherichia coli MITC95” value ([1]; NDM-1 (CLB30016)) was 1.563 µM and the “Klebsiella pneumoniae MITC95” value ([2]; VIM-1 (IHMA599644)) was 3.125 µM. The “Serratia marcescens MITC95” value ([3]; IMP-1 (CL5741)) was 1.563 µM, the “P. aeruginosa expressing IMP-1, efflux+ (MB9798) MITC95” value [4] was 1.563 µM and the Efflux ratio [4] was 1.00. The “P. aeruginosa expressing IMP-1, efflux− (MB9799) MITC95” value [5] was 1.563 µM, the IC50 (IMP-1) was 664 pM and the IC50 (NDM-1) was 173 pM.
